Data from paper PMC5078040 (Oncotarget, 2016).

Experiments:
[1] = molecular target: T1, ABL1(F317I)-phosphorylated (Homo sapiens, UniProt P00519, F317I); test: KinomeScan; assay type: binding; settings: 1uM
T1 construct: purchased DiscoveRx KINOMEscan

[2] = molecular target: T2, ACVR1B (Homo sapiens, UniProt P36896); test: KinomeScan; assay type: binding; settings: 1uM
T2 construct: purchased DiscoveRx KINOMEscan

[3] = molecular target: T3, ALK(C1156Y) (Homo sapiens, UniProt Q9UM73, C1156Y); test: KinomeScan; assay type: binding; settings: 1uM
T3 construct: purchased DiscoveRx KINOMEscan
T3 sequence (Q9UM73 19-1620 C1156Y): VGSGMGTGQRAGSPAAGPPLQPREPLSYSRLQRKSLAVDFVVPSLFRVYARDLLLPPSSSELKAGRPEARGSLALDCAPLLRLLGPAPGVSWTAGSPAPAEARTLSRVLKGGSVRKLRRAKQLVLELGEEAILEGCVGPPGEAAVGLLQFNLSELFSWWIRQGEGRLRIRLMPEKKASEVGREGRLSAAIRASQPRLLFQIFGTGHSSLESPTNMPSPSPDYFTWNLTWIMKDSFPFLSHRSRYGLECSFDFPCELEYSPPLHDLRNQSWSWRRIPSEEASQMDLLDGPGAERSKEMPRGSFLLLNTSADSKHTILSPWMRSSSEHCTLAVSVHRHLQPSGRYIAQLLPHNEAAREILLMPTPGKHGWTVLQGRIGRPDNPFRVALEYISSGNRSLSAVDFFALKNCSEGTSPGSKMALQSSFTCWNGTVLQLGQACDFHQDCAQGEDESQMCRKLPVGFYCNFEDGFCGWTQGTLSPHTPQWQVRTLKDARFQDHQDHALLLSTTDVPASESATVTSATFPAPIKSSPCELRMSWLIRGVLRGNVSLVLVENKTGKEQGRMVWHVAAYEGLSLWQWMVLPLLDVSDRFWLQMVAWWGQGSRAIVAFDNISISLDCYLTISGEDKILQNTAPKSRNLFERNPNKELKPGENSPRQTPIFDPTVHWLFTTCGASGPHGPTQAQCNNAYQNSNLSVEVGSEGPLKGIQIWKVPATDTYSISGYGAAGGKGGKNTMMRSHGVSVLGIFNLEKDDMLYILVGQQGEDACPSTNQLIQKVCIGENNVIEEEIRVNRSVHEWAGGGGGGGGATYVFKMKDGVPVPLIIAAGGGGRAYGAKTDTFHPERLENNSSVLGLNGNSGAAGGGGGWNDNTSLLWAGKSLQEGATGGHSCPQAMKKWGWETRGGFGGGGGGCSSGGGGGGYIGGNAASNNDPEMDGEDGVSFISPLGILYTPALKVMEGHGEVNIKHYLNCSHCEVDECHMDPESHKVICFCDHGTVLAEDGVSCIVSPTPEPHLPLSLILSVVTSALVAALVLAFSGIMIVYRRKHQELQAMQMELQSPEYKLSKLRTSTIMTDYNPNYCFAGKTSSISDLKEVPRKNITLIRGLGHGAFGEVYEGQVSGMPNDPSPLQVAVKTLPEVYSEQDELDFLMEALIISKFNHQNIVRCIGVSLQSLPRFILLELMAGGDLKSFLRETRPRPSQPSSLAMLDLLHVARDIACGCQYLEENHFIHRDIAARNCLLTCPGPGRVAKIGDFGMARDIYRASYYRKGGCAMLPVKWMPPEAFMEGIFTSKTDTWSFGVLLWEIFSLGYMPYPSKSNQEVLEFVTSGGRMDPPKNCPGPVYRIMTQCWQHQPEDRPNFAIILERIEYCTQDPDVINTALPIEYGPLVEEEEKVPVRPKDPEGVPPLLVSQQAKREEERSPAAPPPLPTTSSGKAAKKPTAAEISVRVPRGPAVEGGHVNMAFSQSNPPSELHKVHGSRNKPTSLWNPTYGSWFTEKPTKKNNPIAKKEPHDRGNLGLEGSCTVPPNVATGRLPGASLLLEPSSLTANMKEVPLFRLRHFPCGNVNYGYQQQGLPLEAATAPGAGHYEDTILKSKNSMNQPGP

[4] = molecular target: T4, AMPK-alpha2 (Homo sapiens, UniProt P54646); test: KinomeScan; assay type: binding; settings: 1uM
T4 construct: purchased DiscoveRx KINOMEscan

[5] = molecular target: T5, ARK5 (Homo sapiens, UniProt O60285); test: KinomeScan; assay type: binding; settings: 1uM
T5 construct: purchased DiscoveRx KINOMEscan

[6] = molecular target: T6, CDC2L1 (Homo sapiens, UniProt P21127); test: KinomeScan; assay type: binding; settings: 1uM
T6 construct: purchased DiscoveRx KINOMEscan

[7] = molecular target: T7, CDK5 (Homo sapiens, UniProt Q00535); test: KinomeScan; assay type: binding; settings: 1uM
T7 construct: purchased DiscoveRx KINOMEscan

[8] = molecular target: T8, CDKL1 (Homo sapiens, UniProt Q00532); test: KinomeScan; assay type: binding; settings: 1uM
T8 construct: purchased DiscoveRx KINOMEscan

[9] = molecular target: T9, CDKL5 (Homo sapiens, UniProt O76039); test: KinomeScan; assay type: binding; settings: 1uM
T9 construct: purchased DiscoveRx KINOMEscan

[10] = molecular target: T10, CLK3 (Homo sapiens, UniProt P49761); test: KinomeScan; assay type: binding; settings: 1uM
T10 construct: purchased DiscoveRx KINOMEscan

[11] = molecular target: T11, CSNK1G1 (Homo sapiens, UniProt Q9HCP0); test: KinomeScan; assay type: binding; settings: 1uM
T11 construct: purchased DiscoveRx KINOMEscan

[12] = molecular target: T12, EPHA7 (Homo sapiens, UniProt Q15375); test: KinomeScan; assay type: binding; settings: 1uM
T12 construct: purchased DiscoveRx KINOMEscan

[13] = molecular target: T13, EPHA8 (Homo sapiens, UniProt P29322); test: KinomeScan; assay type: binding; settings: 1uM
T13 construct: purchased DiscoveRx KINOMEscan

[14] = molecular target: T14, ERBB4 (Homo sapiens, UniProt Q15303); test: KinomeScan; assay type: binding; settings: 1uM
T14 construct: purchased DiscoveRx KINOMEscan

[15] = molecular target: T15, ERK2 (Homo sapiens, UniProt P28482); test: KinomeScan; assay type: binding; settings: 1uM
T15 construct: purchased DiscoveRx KINOMEscan

[16] = system: FLT3(ITD); test: KinomeScan; assay type: binding; settings: 1uM
[17] = molecular target: T16, FYN (Homo sapiens, UniProt P06241); test: KinomeScan; assay type: binding; settings: 1uM
T16 construct: purchased DiscoveRx KINOMEscan

[18] = molecular target: T17, GRK4 (Homo sapiens, UniProt P32298); test: KinomeScan; assay type: binding; settings: 1uM
T17 construct: purchased DiscoveRx KINOMEscan

[19] = molecular target: T18, HASPIN (Homo sapiens, UniProt Q8TF76); test: KinomeScan; assay type: binding; settings: 1uM
T18 construct: purchased DiscoveRx KINOMEscan

[20] = molecular target: T19, HUNK (Homo sapiens, UniProt P57058); test: KinomeScan; assay type: binding; settings: 1uM
T19 construct: purchased DiscoveRx KINOMEscan

[21] = molecular target: T20, JAK1(JH1domain-catalytic) (Homo sapiens, UniProt P23458); test: KinomeScan; assay type: binding; settings: 1uM
T20 construct: JAK1(JH1domain-catalytic); purchased DiscoveRx KINOMEscan

[22] = molecular target: T21, MAP4K4 (Homo sapiens, UniProt O95819); test: KinomeScan; assay type: binding; settings: 1uM
T21 construct: purchased DiscoveRx KINOMEscan
T21 sequence (O95819 whole entry): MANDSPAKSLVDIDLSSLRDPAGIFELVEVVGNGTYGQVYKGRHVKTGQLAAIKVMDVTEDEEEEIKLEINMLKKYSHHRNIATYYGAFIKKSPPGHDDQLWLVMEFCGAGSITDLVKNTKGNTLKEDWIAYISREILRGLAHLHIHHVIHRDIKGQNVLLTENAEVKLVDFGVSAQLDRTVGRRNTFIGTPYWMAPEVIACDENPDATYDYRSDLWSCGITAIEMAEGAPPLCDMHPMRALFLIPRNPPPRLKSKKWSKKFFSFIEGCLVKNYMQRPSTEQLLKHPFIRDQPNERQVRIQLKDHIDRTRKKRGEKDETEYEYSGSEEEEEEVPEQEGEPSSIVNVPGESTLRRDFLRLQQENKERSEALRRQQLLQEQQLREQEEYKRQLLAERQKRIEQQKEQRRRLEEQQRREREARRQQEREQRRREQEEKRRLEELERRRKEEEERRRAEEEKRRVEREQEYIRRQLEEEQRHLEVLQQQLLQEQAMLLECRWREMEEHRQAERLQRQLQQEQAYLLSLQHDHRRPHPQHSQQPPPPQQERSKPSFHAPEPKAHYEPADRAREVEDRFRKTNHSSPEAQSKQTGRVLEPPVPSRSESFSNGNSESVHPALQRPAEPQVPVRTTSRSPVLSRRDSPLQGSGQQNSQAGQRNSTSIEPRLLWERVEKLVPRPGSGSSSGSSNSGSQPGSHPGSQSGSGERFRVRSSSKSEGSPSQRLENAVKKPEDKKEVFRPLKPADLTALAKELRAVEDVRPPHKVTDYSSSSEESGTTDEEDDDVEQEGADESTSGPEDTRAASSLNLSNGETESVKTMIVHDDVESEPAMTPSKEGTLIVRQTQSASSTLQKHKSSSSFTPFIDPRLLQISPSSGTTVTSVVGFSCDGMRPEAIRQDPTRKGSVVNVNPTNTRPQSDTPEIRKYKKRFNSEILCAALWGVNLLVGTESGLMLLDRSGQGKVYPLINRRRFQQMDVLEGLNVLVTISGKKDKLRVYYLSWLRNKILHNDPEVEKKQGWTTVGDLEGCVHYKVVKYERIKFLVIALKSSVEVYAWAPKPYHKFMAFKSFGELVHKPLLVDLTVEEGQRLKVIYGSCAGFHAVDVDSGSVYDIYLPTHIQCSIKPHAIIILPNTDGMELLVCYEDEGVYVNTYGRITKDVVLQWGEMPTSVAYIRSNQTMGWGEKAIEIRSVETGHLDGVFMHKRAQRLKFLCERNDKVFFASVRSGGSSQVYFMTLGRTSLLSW

[23] = molecular target: T22, MAPKAPK5 (Homo sapiens, UniProt Q8IW41); test: KinomeScan; assay type: binding; settings: 1uM
T22 construct: purchased DiscoveRx KINOMEscan

[24] = molecular target: T23, MARK2 (Homo sapiens, UniProt Q7KZI7); test: KinomeScan; assay type: binding; settings: 1uM
T23 construct: purchased DiscoveRx KINOMEscan

[25] = molecular target: T24, MKNK1 (Homo sapiens, UniProt Q9BUB5); test: KinomeScan; assay type: binding; settings: 1uM
T24 construct: purchased DiscoveRx KINOMEscan
T24 sequence (Q9BUB5 whole entry): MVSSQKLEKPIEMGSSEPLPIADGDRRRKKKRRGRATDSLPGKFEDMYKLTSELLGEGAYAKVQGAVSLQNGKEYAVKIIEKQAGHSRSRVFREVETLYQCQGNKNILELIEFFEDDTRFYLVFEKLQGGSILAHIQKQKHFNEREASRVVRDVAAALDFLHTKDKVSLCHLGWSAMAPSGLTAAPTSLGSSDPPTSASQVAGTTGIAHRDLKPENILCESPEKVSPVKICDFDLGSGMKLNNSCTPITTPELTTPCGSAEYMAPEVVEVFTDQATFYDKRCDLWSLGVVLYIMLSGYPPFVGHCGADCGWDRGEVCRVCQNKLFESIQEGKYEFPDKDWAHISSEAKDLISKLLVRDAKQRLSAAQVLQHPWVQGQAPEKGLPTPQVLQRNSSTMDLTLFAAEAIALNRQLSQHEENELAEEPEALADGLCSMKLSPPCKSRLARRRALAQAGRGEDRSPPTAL

[26] = molecular target: T25, MYO3B (Homo sapiens, UniProt Q8WXR4); test: KinomeScan; assay type: binding; settings: 1uM
T25 construct: purchased DiscoveRx KINOMEscan

[27] = molecular target: T26, PAK1 (Homo sapiens, UniProt Q13153); test: KinomeScan; assay type: binding; settings: 1uM
T26 construct: purchased DiscoveRx KINOMEscan

[28] = molecular target: T27, PDGFRA (Homo sapiens, UniProt P16234); test: KinomeScan; assay type: binding; settings: 1uM
T27 construct: purchased DiscoveRx KINOMEscan

[29] = molecular target: T28, PDPK1 (Homo sapiens, UniProt O15530); test: KinomeScan; assay type: binding; settings: 1uM
T28 construct: purchased DiscoveRx KINOMEscan
T28 sequence (O15530 whole entry): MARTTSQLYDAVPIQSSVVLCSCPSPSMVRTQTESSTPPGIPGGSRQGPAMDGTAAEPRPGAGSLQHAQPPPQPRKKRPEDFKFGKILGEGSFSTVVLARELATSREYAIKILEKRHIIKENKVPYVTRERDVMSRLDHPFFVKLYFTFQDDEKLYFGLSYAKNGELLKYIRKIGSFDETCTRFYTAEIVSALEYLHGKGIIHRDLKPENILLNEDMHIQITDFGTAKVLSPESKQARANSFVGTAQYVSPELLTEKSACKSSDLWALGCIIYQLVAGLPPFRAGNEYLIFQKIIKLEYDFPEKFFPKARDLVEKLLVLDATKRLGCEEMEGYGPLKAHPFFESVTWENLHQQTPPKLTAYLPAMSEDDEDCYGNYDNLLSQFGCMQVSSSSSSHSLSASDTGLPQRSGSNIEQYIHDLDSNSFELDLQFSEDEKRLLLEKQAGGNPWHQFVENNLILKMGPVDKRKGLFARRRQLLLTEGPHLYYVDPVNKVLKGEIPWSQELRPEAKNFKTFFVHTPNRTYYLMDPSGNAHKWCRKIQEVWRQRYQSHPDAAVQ

[30] = molecular target: T29, PFCDPK1(P.falciparum) (Plasmodium falciparum, UniProt P62344); test: KinomeScan; assay type: binding; settings: 1uM
T29 construct: purchased DiscoveRx KINOMEscan

[31] = molecular target: T30, PIM1 (Homo sapiens, UniProt P11309); test: KinomeScan; assay type: binding; settings: 1uM
T30 construct: purchased DiscoveRx KINOMEscan
T30 sequence (P11309 whole entry): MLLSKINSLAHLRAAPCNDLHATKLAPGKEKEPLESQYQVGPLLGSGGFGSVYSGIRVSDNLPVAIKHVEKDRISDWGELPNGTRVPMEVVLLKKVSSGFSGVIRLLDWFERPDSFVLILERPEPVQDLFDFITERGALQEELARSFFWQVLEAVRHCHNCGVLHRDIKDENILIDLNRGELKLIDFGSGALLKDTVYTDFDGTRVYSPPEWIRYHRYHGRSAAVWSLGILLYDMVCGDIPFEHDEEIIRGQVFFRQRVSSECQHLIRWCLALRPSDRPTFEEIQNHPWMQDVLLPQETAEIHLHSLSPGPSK

[32] = molecular target: T31, PRKCQ (Homo sapiens, UniProt Q04759); test: KinomeScan; assay type: binding; settings: 1uM
T31 construct: purchased DiscoveRx KINOMEscan
T31 sequence (Q04759 whole entry): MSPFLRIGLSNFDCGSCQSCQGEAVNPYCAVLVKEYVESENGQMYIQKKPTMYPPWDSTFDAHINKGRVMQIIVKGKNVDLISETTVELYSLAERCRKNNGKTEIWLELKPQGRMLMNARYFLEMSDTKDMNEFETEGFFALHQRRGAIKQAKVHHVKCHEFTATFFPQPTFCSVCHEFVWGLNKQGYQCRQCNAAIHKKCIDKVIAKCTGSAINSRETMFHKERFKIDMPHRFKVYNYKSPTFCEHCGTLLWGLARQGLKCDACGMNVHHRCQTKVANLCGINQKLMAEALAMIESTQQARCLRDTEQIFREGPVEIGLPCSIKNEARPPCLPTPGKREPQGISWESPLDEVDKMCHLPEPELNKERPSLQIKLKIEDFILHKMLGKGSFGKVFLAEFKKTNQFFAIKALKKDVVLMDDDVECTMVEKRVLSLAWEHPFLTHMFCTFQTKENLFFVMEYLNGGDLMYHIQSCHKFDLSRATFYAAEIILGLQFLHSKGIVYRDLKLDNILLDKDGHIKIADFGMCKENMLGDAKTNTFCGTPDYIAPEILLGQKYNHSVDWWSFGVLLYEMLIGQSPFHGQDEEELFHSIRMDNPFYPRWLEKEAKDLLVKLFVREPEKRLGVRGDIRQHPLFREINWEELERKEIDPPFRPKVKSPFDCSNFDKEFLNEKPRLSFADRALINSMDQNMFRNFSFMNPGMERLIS

[33] = molecular target: T32, RIPK1 (Homo sapiens, UniProt Q13546); test: KinomeScan; assay type: binding; settings: 1uM
T32 construct: purchased DiscoveRx KINOMEscan

[34] = molecular target: T33, STK39 (Homo sapiens, UniProt Q9UEW8); test: KinomeScan; assay type: binding; settings: 1uM
T33 construct: purchased DiscoveRx KINOMEscan

[35] = molecular target: T34, TSSK1B (Homo sapiens, UniProt Q9BXA7); test: KinomeScan; assay type: binding; settings: 1uM
T34 construct: purchased DiscoveRx KINOMEscan

[36] = molecular target: T35, PIK3C2B (Homo sapiens, UniProt O00750); test: ADP-glo biochemical assay
T35 construct: purchased Invitrogen
Experimental: The reaction in each tube was started immediately by adding ATP and kept going for an hour under 37°C. After the tube cooled for 5 minutes at room temperature, 5 μL solvent reactions were carried out in a 384-well plate. Then 5 μL of ADP-Glo™ reagent was added into each well to stop the reaction and consume the remaining ADP within 40 minutes. At the end, 10 μL of kinase detection reagent was added into the well and incubated for 30 minutes to produce a luminescence signal. Luminescence signal was measured with an automated plate reader (Perkin-Elmer Envision) and each measurement was performed in triplicate.

[37] = system: 4EBP1 phosphorylation; test: Signaling pathway effect examination (western blotting); assay type: cell-based, human; settings: all of the cell lines
Experimental: (§1) The cells were collected and lysed, and cell lysates were analyzed by western blotting.

[38] = system: Erk phosphorylation; test: as above; assay type: cell-based, human
Experimental: as §1

[39] = system: NF-kB P65 phosphorylation; test: as above; assay type: cell-based, human; settings: any of the tested cell lines
Experimental: as §1

[40] = system: phosphorylation of Akt at both Thr308 and Ser473; test: as above; assay type: cell-based, human; settings: 1 hour
Experimental: as §1

[41] = system: phosphorylation of PRAS40 GSK3b and FOXO1; test: as above; assay type: cell-based, human; settings: B-cell malignant cell lines
Experimental: as §1

Cc1nc(NC(=O)[C@@H](N)C(C)C)sc1-c1cnc(Cl)c(NS(=O)(=O)c2ccccc2)c1 [PI3KD-IN-015] was tested, and the “KinomeScan ABL1(F317I)-phosphorylated” value [1] was 89, the “KinomeScan ACVR1B” value [2] was 85 and the “KinomeScan ALK(C1156Y)” value [3] was 100. The “KinomeScan AMPK-alpha2” value [4] was 100, the “KinomeScan ARK5” value [5] was 87 and the “KinomeScan CDC2L1” value [6] was 100. For the same compound, the “KinomeScan CDK5” value [7] was 100, the “KinomeScan CDKL1” value [8] was 100 and the “KinomeScan CDKL5” value [9] was 87. The “KinomeScan CLK3” value [10] was 100, the “KinomeScan CSNK1G1” value [11] was 100 and the “KinomeScan EPHA7” value [12] was 100. The “KinomeScan EPHA8” value [13] was 100, the “KinomeScan ERBB4” value [14] was 98 and the “KinomeScan ERK2” value [15] was 100. The “KinomeScan FLT3(ITD)” value [16] was 100, the “KinomeScan FYN” value [17] was 100 and the “KinomeScan GRK4” value [18] was 92. For the same compound, the “KinomeScan HASPIN” value [19] was 94, the “KinomeScan HUNK” value [20] was 100 and the “KinomeScan JAK1(JH1domain-catalytic)” value [21] was 92. For the same compound, the “KinomeScan MAP4K4” value [22] was 100, the “KinomeScan MAPKAPK5” value [23] was 82 and the “KinomeScan MARK2” value [24] was 95. For the same compound, the “KinomeScan MKNK1” value [25] was 100, the “KinomeScan MYO3B” value [26] was 100 and the “KinomeScan PAK1” value [27] was 100. The “KinomeScan PDGFRA” value [28] was 94, the “KinomeScan PDPK1” value [29] was 100 and the “KinomeScan PFCDPK1(P.falciparum)” value [30] was 100. For the same compound, the “KinomeScan PIM1” value [31] was 100, the “KinomeScan PRKCQ” value [32] was 100 and the “KinomeScan RIPK1” value [33] was 100. For the same compound, the “KinomeScan STK39” value [34] was 100, the “KinomeScan TSSK1B” value [35] was 97 and the IC50 [36] was over 10 µM. The 4EBP1 phosphorylation [37] was “not changed at all”, the Erk phosphorylation ([38]; MOLM13 and HT cells) was “not in MOLM13 and HT” and the Erk phosphorylation ([38]; Namalwa, MEC-1, MEC-2 and HS505T cells) was “reduced”. The “NF-kB P65 phosphorylation” value [39] was “not inhibited”, the EC50 ([40]; Homo sapiens, CLL cell, HS505T (CLL) cells) was under 1 µM and the EC50 ([40]; Homo sapiens, HT (B-NHL) cells) was under 1 µM. The EC50 ([40]; Homo sapiens, MOLM-13 (AML) cells) was under 1 µM, the EC50 ([40]; MEC-1 (CLL) cells) was under 1 µM and the EC50 ([40]; MEC-2 (CLL) cells) was under 1 µM. The EC50 ([40]; Namalwa (Burkitt Lymphoma) cells) was under 1 µM and the “phosphorylation of Akt substrates PRAS40 GSK3b and FOXO1” value [41] was “decreased phosphorylation”.
